Laboratory results: patent publication US8148391B2 (Cephalon, Inc., priority 2006, dated 2012)
Where two headings read alike, the source gives them in different places.

Legend:
[1] = biological target: T1, c-Met (cytoplasmic domain) (Homo sapiens, UniProt P08581); assay: c-Met Kinase Assay (same methods as for ALK, with modifications); format: biochemical
T1 construct: 10 ng/mL c-Met (cytoplasmic domain, Invitrogen Corporation #PV3143); purchased Invitrogen Corporation PV3143
Method in brief: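 Europium-labeled PT66 antibody (Eu-N1) detects substrate phosphorylation on wells coated with phospholipase C-γ at 10 μg/mL. The kinase, the cytoplasmic domain of c-Met at 10 ng/mL, starts the reaction, which proceeds 15 minutes at 37° C.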

[2] = biological target: T2, baculovirus-expressed ALK (Homo sapiens, UniProt Q9UM73); assay: ALK Kinase Assay (ELISA-type, time-resolved fluorescence); format: biochemical
T2 construct: host or cells: baculovirus expression system
T2 sequence (Q9UM73 19-1620): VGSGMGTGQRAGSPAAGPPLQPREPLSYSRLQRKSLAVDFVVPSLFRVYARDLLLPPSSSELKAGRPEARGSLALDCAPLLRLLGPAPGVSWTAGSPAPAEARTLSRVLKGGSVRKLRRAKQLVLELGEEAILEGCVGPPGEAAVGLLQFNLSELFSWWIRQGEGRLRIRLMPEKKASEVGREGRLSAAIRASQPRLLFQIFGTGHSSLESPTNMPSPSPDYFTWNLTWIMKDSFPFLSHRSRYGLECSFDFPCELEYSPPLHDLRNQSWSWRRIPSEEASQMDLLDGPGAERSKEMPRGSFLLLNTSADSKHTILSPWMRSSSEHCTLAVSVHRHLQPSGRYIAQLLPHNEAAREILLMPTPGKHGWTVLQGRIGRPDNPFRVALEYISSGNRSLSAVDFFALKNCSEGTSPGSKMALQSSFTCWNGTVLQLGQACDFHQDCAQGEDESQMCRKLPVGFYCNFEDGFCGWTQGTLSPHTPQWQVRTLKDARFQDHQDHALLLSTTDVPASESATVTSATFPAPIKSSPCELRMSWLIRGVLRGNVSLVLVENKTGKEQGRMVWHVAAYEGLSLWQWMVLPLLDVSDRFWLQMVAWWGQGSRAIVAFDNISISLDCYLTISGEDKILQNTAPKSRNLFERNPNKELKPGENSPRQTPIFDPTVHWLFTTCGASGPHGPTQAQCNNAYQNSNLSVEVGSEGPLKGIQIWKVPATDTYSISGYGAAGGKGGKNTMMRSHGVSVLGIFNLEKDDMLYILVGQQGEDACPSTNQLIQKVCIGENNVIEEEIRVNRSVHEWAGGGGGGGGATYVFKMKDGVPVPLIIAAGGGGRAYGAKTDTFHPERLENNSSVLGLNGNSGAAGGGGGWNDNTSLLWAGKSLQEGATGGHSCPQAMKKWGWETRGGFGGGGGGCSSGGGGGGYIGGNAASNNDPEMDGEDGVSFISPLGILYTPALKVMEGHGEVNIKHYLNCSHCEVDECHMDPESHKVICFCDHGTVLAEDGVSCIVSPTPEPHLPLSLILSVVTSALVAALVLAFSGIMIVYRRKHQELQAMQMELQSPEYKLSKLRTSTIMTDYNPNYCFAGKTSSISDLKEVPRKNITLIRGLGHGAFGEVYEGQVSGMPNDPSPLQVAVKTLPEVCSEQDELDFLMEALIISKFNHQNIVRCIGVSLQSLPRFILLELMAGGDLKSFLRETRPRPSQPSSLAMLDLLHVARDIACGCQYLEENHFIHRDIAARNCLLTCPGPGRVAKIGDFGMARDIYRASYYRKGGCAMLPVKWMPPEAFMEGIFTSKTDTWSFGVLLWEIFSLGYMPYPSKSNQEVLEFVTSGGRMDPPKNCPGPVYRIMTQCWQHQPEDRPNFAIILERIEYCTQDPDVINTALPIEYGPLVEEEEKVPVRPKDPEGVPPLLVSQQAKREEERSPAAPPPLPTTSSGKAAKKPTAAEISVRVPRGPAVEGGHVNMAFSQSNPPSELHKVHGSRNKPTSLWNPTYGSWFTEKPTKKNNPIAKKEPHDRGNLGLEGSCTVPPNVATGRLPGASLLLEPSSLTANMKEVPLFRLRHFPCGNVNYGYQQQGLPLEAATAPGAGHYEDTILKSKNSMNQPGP
Method in brief: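 Plates coated with phospholipase C-γ substrate (10 μg/mL in TBS); reaction started with 30 ng/ml ALK and run 15 min at 37° C. Phosphorylated substrate detected with Eu-N1-labeled PT66 antibody. IC50 from sigmoidal variable-slope fit of percent inhibition vs log concentration.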

[3] = c-Met kinase inhibition, 1 μM ATP (Km level), read-out: cMet Activity
[4] = ALK kinase inhibition, 1 μM ATP (Km level), read-out: ALK Activity
[5] = c-Met kinase inhibition, 1 μM ATP, read-out: cMet Activity
[6] = ALK kinase inhibition, 1 μM ATP, read-out: ALK Activity
[7] = 1 μM ATP (Km level), read-out: cMet Activity (c-Met Kinase Inhibition, IC50)
[8] = 1 μM ATP (Km level), read-out: ALK Activity (ALK Kinase Inhibition, IC50)
[9] = 1 μM ATP (Km level), 10 ng/mL c-Met, read-out: cMet Activity (c-Met kinase inhibition, IC50 class)
[10] = 1 μM ATP (Km level), 30 ng/ml ALK, 37° C., 15 minutes, read-out: ALK Activity (ALK kinase inhibition, IC50 class)

T1 sequence (P08581 956-1390 limits assumed): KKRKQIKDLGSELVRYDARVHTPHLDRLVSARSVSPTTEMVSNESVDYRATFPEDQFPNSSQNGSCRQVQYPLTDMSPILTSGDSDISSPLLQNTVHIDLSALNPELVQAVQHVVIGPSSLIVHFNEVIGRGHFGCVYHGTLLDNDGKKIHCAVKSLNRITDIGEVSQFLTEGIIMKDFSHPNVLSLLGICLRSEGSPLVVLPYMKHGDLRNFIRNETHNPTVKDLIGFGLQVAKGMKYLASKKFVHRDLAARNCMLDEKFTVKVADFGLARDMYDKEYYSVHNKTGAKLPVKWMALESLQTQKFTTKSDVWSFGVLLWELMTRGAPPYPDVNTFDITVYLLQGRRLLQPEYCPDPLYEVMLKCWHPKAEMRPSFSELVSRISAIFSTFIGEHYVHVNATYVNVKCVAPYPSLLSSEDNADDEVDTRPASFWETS

| IC50 [1, 5] [µM] | IC50 [2, 6] [µM] | IC50 [1, 9] [µM] | IC50 [2, 10] [µM] | SMILES | also measured |
| --- | --- | --- | --- | --- | --- |
| – | – | – | – | CCN1CCc2ccc(Nc3ncc(Cl)c(N[C@@H]4CCCC[C@H]4NS(C)(=O)=O)n3)c(OC)c2CC1 [Example 232, N-{(1R,2R)-2-[5-Chloro-2-(3-ethyl-6-methoxy-2,3,4,5-tetrahydro-1H-benzo[d]azepin-7-ylamino)-pyrimidin-4-ylamino]-cyclohexyl}-methanesulfonamide] | IC50 [1, 3]: > 10 µM; IC50 [2, 4]: < 0.1 µM |
| > 10 | 1 to 10 | – | – | CNC(=O)c1ccccc1N(C)c1nc(Nc2ccc3c(c2)CC(=O)N(C)CC3)ncc1F [Example 1824, 2-{[5-Fluoro-2-(3-methyl-4-oxo-2,3,4,5-tetrahydro-1H-benzo[d]azepin-7-ylamino)-pyrimidin-4-yl]-methyl-amino}-N-methyl-benzamide] | – |
| – | – | – | – | COc1cc2c(cc1Nc1ncc(Cl)c(Nc3ccc(N4CCN(C(C)C)CC4)c4c3C(=O)N(C)C4)n1)CCN(CC(=O)N(C)C)CC2 [Example 951, 2-(7-{5-Chloro-4-[7-(4-isopropyl-piperazin-1-yl)-2-methyl-3-oxo-2,3-dihydro-1H-isoindol-4-ylamino]-pyrimidin-2-ylamino}-8-methoxy-1,2,4,5-tetrahydro-3-benzazepin-3-yl)-N,N-dimethyl-acetamide] | IC50 [1, 7]: > 10 µM; IC50 [2, 8]: < 0.1 µM |
| > 10 | < 0.1 | – | – | CCN1CC(=O)Nc2cc(Nc3ncc(Cl)c(Nc4ccc(N5CCOCC5)cc4OC)n3)c(OC)cc2C1 [Example 1661, 8-[5-Chloro-4-(2-methoxy-4-morpholin-4-yl-phenylamino)-pyrimidin-2-ylamino]-4-ethyl-7-methoxy-1,3,4,5-tetrahydro-benzo[e][1,4]diazepin-2-one] | – |
| > 10 | < 0.1 | – | – | CCN1CC(=O)Nc2cc(Nc3ncc(Cl)c(N[C@@H]4CCCC[C@H]4NS(C)(=O)=O)n3)c(OC)cc2C1 [Example 1658, N-{(1R,2R)-2-[5-Chloro-2-(4-ethyl-7-methoxy-2-oxo-2,3,4,5-tetrahydro-1H-benzo[e][1,4]diazepin-8-ylamino)-pyrimidin-4-ylamino]-cyclohexyl}-methane-sulfonamide] | – |
| – | – | – | – | CNC(=O)c1cccc(F)c1Nc1nc(Nc2ccc3c(c2)N(CCOC)C(=O)CCC3)ncc1C(F)(F)F [Example 926, 3-Fluoro-2-{2-[1-(2-methoxy-ethyl)-2-oxo-2,3,4,5-tetrahydro-1H-benzo[b]azepin-8-ylamino]-5-trifluoromethyl-pyrimidin-4-ylamino}-N-methyl-benzamide] | IC50 [1, 7]: < 0.1 µM; IC50 [2, 8]: < 0.1 µM |
| – | – | – | – | CC1(C)CCC(=O)Nc2ccc(Nc3ncc(Cl)c(NC4C5C=CC(C5)C4C(N)=O)n3)cc21 (stereo not drawn) [Example 394, (2-exo,3-exo)-3-[5-Chloro-2-(5,5-dimethyl-2-oxo-2,3,4,5-tetrahydro-1H-benzo[b]azepin-7-ylamino)-pyrimidin-4-ylamino]-bicyclo[2.2.1]hept-5-ene-2-carboxylic acid amide] | IC50 [1, 3]: 0.1 to 1 µM; IC50 [2, 4]: < 0.1 µM |
| – | – | < 0.1 | < 0.1 | CNC(=O)c1cc(-c2cnn(C)c2)cc(F)c1Nc1nc(Nc2ccc3c(c2)OCCCN3C(=O)OC)ncc1Cl [Example 1434, 3-{5-Chloro-4-[2-fluoro-6-methylcarbamoyl-4-(1-methyl-1H-pyrazol-4-yl)-phenylamino]-pyrimidin-2-ylamino}-7,8-dihydro-6H-5-oxa-9-aza-benzocycloheptene-9-carboxylic acid methyl ester] | – |
| – | – | 1 to 10 | < 0.1 | COc1cc2c(cc1Nc1ncc(Cl)c(Nc3ccccc3S(=O)(=O)N(C)C)n1)CCN(C(=O)C(C)(C)N)CC2 [Example 1207, 2-{2-[3-(2-Amino-2-methyl-propionyl)-8-methoxy-2,3,4,5-tetrahydro-1H-benzo[d]azepin-7-ylamino]-5-chloro-pyrimidin-4-ylamino}-N,N-dimethyl-benzenesulfonamide] | – |
| < 0.1 | 0.1 to 1 | – | – | CNC(=O)c1cccc(Cl)c1Nc1nc(Nc2ccc3c(c2)CNC(=O)CC3)ncc1Cl [Example 1796, 3-Chloro-2-[5-chloro-2-(3-oxo-2,3,4,5-tetrahydro-1H-benzo[c]azepin-8-ylamino)-pyrimidin-4-ylamino]-N-methylbenzamide] | – |
| > 10 | < 0.1 | – | – | COc1cc2c(cc1Nc1ncc(Cl)c(Nc3ccccc3S(=O)(=O)N(C)C)n1)CCN(CC(=O)N1CCOCC1)CC2 [Example 1525, 2-{5-Chloro-2-[8-methoxy-3-(2-morpholin-4-yl-2-oxo-ethyl)-2,3,4,5-tetrahydro-1H-3-benzazepin-7-ylamino]-pyrimidin-4-ylamino}-N,N-dimethyl-benzenesulfonamide] | – |
| – | – | 1 to 10 | < 0.1 | COc1cc2c(cc1Nc1ncc(Cl)c(Nc3ccccc3S(=O)(=O)N(C)C)n1)CCN(CC(=O)N(C)C)CC2 [Example 1141, 2-{7-[5-Chloro-4-(2-dimethylsulfamoyl-phenylamino)-pyrimidin-2-ylamino]-8-methoxy-1,2,4,5-tetrahydro-benzo[d]azepin-3-yl}-N,N-dimethyl-acetamide] | – |
| – | – | – | – | CNC(=O)c1ccccc1Nc1nc(Nc2ccc3c(c2)CCCCN3C)ncc1Cl [Example 103, 2-[5-Chloro-2-(1-methyl-2,3,4,5-tetrahydro-1H-benzo[b]azepin-7-ylamino)-pyrimidin-4-ylamino]-N-methyl-benzamide] | IC50 [1, 3]: < 0.1 µM; IC50 [2, 4]: < 0.1 µM |
| 1 to 10 | 1 to 10 | – | – | Cc1noc(-c2ccccc2Nc2nc(Nc3ccc4c(c3)CCOC(=O)N4C)ncc2Cl)n1 [Example 1784, 2-{5-Chloro-4-[2-(3-methyl-[1,2,4]oxadiazol-5-yl)-phenylamino]-pyrimidin-2-ylamino}-5-methyl-8,9-dihydro-5H-7-oxa-5-aza-benzocyclohepten-6-one] | – |
| – | – | – | – | CC1(C)CCC(=O)Nc2ccc(Nc3ncc(Cl)c(Nc4ccc(N5CCOCC5)cc4-n4cccn4)n3)cc21 [Example 627, 7-[5-Chloro-4-(4-morpholin-4-yl-2-pyrazol-1-yl-phenylamino)-pyrimidin-2-ylamino]-5,5-dimethyl-1,3,4,5-tetrahydro-benzo[b]azepin-2-one] | IC50 [1, 7]: 1 to 10 µM; IC50 [2, 8]: < 0.1 µM |
| – | – | 0.1 to 1 | 0.1 to 1 | COCCN1CCc2ccc(Nc3ncc(Cl)c(Nc4ccccc4C(=O)NCCN4CCCC4)n3)cc2CC1 [Example 1416, 2-{5-Chloro-2-[3-(2-methoxy-ethyl)-2,3,4,5-tetrahydro-1H-benzo[d]azepin-7-ylamino]-pyrimidin-4-ylamino}-N-(2-pyrrolidin-1-yl-ethyl)-benzamide] | – |
| – | – | – | – | CNS(=O)(=O)c1ccccc1Nc1nc(Nc2ccc3c(c2)CCN(S(C)(=O)=O)CC3)ncc1Cl [Example 43, 2-[5-Chloro-2-(3-methanesulfonyl-2,3,4,5-tetrahydro-1H-benzo[d]azepin-7-ylamino)-pyrimidin-4-ylamino]-N-methyl-benzenesulfonamide] | IC50 [1, 3]: < 0.1 µM; IC50 [2, 4]: < 0.1 µM |
| – | – | > 10 | 1 to 10 | O=C1CCCc2ccc(Nc3ncc(Cl)c(Nc4c(F)cccc4OCCCOCc4ccccc4)n3)cc2N1 [Example 1283, 8-{4-[2-(3-Benzyloxy-propoxy)-6-fluoro-phenylamino]-5-chloro-pyrimidin-2-ylamino}-1,3,4,5-tetrahydro-1-benzazepin-2-one] | – |
| – | – | < 0.1 | < 0.1 | CC(=O)N1CCC(=O)NCc2cc(Nc3ncc(Cl)c(Nc4ccccc4OCC#N)n3)ccc21 [Example 1231, {2-[2-(1-Acetyl-4-oxo-1,2,3,4,5,6-hexahydro-benzo[b][1,5]diazocin-8-ylamino)-5-chloro-pyrimidin-4-ylamino]-phenoxy}-acetonitrile] | – |
